From patent publication US9694073B2, “Small molecule inhibitors of polynucleotide kinase/phosphatase, poly(ADP-ribose) polymerase and uses thereof” (THE GOVERNORS OF THE UNIVERSITY OF ALBERTA, priority 2009, dated 2017)
“Also recorded” adds a separate entry of the source.

Experiments:
PP-1cγ = biological target: T1, PP-1cγ (Homo sapiens, UniProt P36873); test: PP-1cγ pNPP phosphatase assay; format: biochemical; settings: concentration as high as 83.3 μM
T1 construct: made in house; host or cells: E. coli
Experimental: PP-1cγ and calcineurin activity was analyzed, using a colorimetric p-nitrophenol phosphate (pNPP) assay as previously described (33). The reaction were carried out in a 96-well microplate with a final volume of 60 μl containing 40 μl of pNPP assay buffer (50 mM Tris, pH 7.4, 0.1 mM EDTA, 30 mM MgCl2, 0.5 mM MnCl2, 1 mg/ml BSA, 0.2% β-mercaptoethanol), 0.03 μg PP-1cγ (specific activity>30 units per mg) or a catalytically equivalent quantity of calcineurin and 10 μl of 0.5 mM DNA 3′-phosphatase inhibitor sample in DMSO or 10 μl of 50 μM A12B4C3 sample in DMSO, or control solvent. After a 10-minute incubation at 37° C., 10 μl of 30 mM pNPP was added to each well and incubated for an additional of 60 minutes and 45 minutes for PP-1cγ and calcineurin, respectively.

[1] = system: M059J cells (DNA-PKcs negative); format: cell-based, human
A549 cells = test: Radiosensitization, clonogenic assay; format: cell-based, human; settings: 1 μM, 2 hours before irradiation and 24 hours after
Experimental: (§1) The effect of hPNKP inhibition by A12B4C3 on cellular survival following exposure to ionizing radiation was measured in A549, A549δPNKP and MDA-MB-231 and MDA-MB-231δPNKP cells by clonogenic assays. Cells were seeded on 60-mm tissue culture plates at various concentrations to give between about 100-1000 colonies per plate and returned to the incubator overnight to allow the cells to attach. For radiosensitization studies, the cells were incubated with or without 1 μM A12B4C3 for 2 hours before irradiation and then exposed to increasing doses of γ-radiation (^60Co Gammacell; Atomic Energy of Canada Limited, Ottawa). After irradiation, cells were incubated for a further 24 hours in the same media and then washed twice with phosphate-buffered saline (PBS) and incubated in fresh media without the inhibitor. Colonies were stained with crystal violet after 10 to 14 days and counted with an automated Colcount colony counter (Oxford Optronix, Oxford, UK).
(§2) The capacity of A12B4C3 to act as a radiosensitizer was then examined. A549 cells were incubated with 1 μM A12B4C3 for 2 hours prior to irradiation and then maintained in the presence of the compound for a further 24 hours. […] This radiation response was nearly identical to that seen with cells depleted of PNKP by stable expression of shRNA (A549δPNKP).

[2] = system: A549δPNKP cells (PNKP-depleted); test: Radiosensitization, clonogenic assay; format: cell-based, human; settings: 1 μM
Experimental: as §1, §2

mouse PNKP = biological target: T2, mouse PNKP (Mus musculus, UniProt Q9JLV6); test: PiColorLock 3'-phosphatase assay, mouse PNKP; format: biochemical; settings: all concentrations tested (down to 5 μM)
T2 construct: made in house
Excerpt: To determine the specificity of A12B4C3 for human PNKP phosphatase activity, a number of closely related phosphatases such as the PNKP enzymes isolated from bacteriophage T4, Schizosaccharomyces pombe and mouse, as well as aprataxin, were examined.

[3] = system: DNA Polymerase β Dominant Negative (Pol β DN) A549 cells; test: Synthetic lethality cell proliferation assay; format: cell-based, human; settings: increasing concentrations, 72 hours
[4] = biological target: T3, human PNKP kinase activity (Homo sapiens, UniProt Q96T60); test: DNA kinase assay; format: biochemical
T3 construct: made in house; host or cells: bacteria (said only for the batch compared with aprataxin)
Experimental: Reaction mixtures (20 μl) containing kinase buffer (80 mM succinic acid (pH 5.5), 10 mM MgCl2, and 1 mM DTT), 100 μM 20-mer oligonucleotide substrate, 3.3 pmol of [γ-32P]ATP, A12B4C3 (0-50 μM) in 2 μl DMSO, and 1 μg of PNK were incubated at 37° C. for 20 minutes. The reaction was stopped by addition of an equal volume of DNA loading dye (90% formamide, 0.02% bromophenol blue, 0.02% xylene cyanol in 1×TBE). Samples were boiled for 5 minutes and the products separated on a 12% polyacrylamide/8 M urea gel. Gels were scanned with a Typhoon 9400 Variable Mode Imager (GE Healthcare), and quantified using Image Quant 5.2 Software (GE Healthcare).
The effect of A12B4C3 on the kinase activity of human PNKP was examined by quantifying the transfer of ^32P-labeled phosphate from radiolabeled ATP to an oligonucleotide. […] However, the inhibition of the kinase and phosphatase activities cannot be directly compared because the standard assay for kinase activity uses ten-fold more enzyme than the assay for phosphatase activity

T1 sequence (P36873 whole entry): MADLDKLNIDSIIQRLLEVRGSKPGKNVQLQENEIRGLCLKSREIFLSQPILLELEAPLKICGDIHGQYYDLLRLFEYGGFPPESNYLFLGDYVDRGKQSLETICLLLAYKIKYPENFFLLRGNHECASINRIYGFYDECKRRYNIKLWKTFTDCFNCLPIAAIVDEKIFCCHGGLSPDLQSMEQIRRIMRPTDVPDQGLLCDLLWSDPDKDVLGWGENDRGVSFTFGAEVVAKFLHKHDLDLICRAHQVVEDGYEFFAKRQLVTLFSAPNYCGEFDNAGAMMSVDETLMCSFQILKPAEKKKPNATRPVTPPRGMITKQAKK
T2 sequence (Q9JLV6 whole entry): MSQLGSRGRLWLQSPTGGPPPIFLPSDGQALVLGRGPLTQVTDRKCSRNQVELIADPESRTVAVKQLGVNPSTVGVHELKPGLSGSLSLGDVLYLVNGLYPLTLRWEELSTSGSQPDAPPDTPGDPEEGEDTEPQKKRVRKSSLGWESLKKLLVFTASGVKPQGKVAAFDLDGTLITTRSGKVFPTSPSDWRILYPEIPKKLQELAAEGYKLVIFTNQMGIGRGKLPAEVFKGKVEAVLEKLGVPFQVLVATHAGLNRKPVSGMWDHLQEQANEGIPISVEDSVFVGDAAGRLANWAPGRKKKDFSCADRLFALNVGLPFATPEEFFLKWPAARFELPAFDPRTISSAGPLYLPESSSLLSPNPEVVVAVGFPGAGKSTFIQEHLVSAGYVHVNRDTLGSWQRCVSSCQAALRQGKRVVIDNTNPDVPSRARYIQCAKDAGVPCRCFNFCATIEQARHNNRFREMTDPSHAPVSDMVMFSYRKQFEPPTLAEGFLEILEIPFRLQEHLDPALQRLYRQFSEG

CCCCCCCCCCC(O)C1C=CC2C(=O)N(c3ccccc3)C(=O)C2N1Nc1ccc([N+](=O)[O-])cc1 (centres unmarked) [Compound A12B4C3, 2-(1-hydroxyundecyl)-1-(4-nitrophenylamino)-6-phenyl-6,7a-dihydro-1H-pyrrolo[3,4-b]pyridine-5,7(2H,4aH)-dione]
inhibition of PP-1γ (PP-1cγ): Neither enzyme displayed inhibition; also recorded: no inhibition
synthetic lethality in M059J cells [1]: no synthetic lethality is seen
radiosensitization (γ-radiation survival curves) (A549 cells): almost doubled the radiosensitivity
radiosensitization (γ-radiation survival curves) [2]: failed to sensitize
inhibition of mouse PNKP (mouse PNKP): significantly inhibited
cell survival of Pol β DN cells [3]: reduced survival; also recorded: inverse relationship
inhibition at 1 µM ([4]; 1 μM): ~16%
reduction of human PNKP kinase activity ([4]; 50 μM): ~30%
